This note sets out measurements from patent US20200283482A1, “BICYCLIC PEPTIDE LIGAND PRR-A CONJUGATES AND USES THEREOF” (BicycleRD Limited, priority 2017, published 2020).

Starred links: 1 amine or outer side, 2 acyl side, 3 side chain; linkers in the order of their positions; H or OH if unused. Positions of bridges follow the written chain, without caps; N, C: chain ends. Non-standard residues stand in square brackets, D forms with d. Residues, ends and D or L forms follow the SMILES beside them. *: point of attachment. X1 = CCOCc1nc2c(NC(=O)OCCSSC(C)CCC(=O)*)nc3ccccc3c2n1CC(C)(C)O; 1Nal = N[C@@H](Cc1cccc2ccccc12)C(=O)O; TBMB = c1c(C[*:1])cc(C[*:3])cc1C[*:2]; Tle = CC(C)(C)[C@H](N)C(=O)O; βAla = NCCC(=O)O; Sar = CNCC(=O)O

The T/C is the ratio of treated to control. The term TGI denotes how far tumour growth fell short of that in controls.

One data set relates to B16F10 xenograft. The experiment in a line: In vivo efficacy of I-8 alone or with antiPD-1 mAb in B16F10 xenograft. On the set-up: species or system C57BL/6J mice. Here is the method:
B16F10 tumor cells were maintained in vitro as a monolayer culture in EMEM medium supplemented with 10% heat inactivated fetal bovine serum at 37° C. in an atmosphere of 5% CO2 in air. The tumor cells were routinely subcultured twice weekly by trypsin-EDTA treatment. The cells growing in an exponential growth phase were harvested and counted for tumor inoculation.
6-8 week old female C57BL/6J mice were inoculated subcutaneously at the right flank with B16F10 tumor cells (5×10^5) in 0.1 ml of PBS for tumor development. Animals were randomized when the average tumor volume reached 65 mm^3.
Conjugates were formulated in 25 mM Histidine, 10% sucrose pH=7 buffer (vehicle) and administered intravenously. Anti-PD1 antibody (Wuxi AppTech, Shanghai, China) was formulated in aqueous buffer and administered intraperitoneally.
Tumor volume was measured three times weekly in two dimensions using a caliper, and the volume was expressed in mm^3 using the formula: V=0.5 a×b^2 where a and b are the long and short diameters of the tumor, respectively. The tumor size was then used for calculations of T/C value. The T/C value (in percent) is an indication of antitumor effectiveness; T and C are the mean volumes of the treated and control groups, respectively, on a given day.
TGI was calculated for each group using the formula: TGI (%)=[1−(Ti−T0)/(Vi−V0)]×100; Ti is the average tumor volume of a treatment group on a given day, T0 is the average tumor volume of the treatment group on the day of treatment start, Vi is the average tumor volume of the vehicle control group on the same day with Ti, and V0 is the average tumor volume of the vehicle group on the day of treatment start.
Summary statistics, including mean and the standard error of the mean (SEM), are provided for the tumor volume of each group at each time point.
Statistical analysis of difference in tumor volume among the groups was conducted on the data obtained at the best therapeutic time point after the final dose.
A one-way ANOVA was performed to compare tumor volume among groups, and when a significant F-statistics (a ratio of treatment variance to the error variance) was obtained, comparisons between groups were carried out with Games-Howell test. All data were analyzed using Prism. P<0.05 was considered to be statistically significant.

A short description of a further data set: Plasma stability, mouse. Format: in vitro ADME. The following applies: pH 7.4; mouse plasma, 2 μM, 37° C.; read-out: T1/2 (mouse).
The nature of another data set: Plasma stability, human. Format: in vitro ADME. The conditions noted are these: pH 7.4; human plasma, 2 μM, 37° C.; read-out: T1/2 (human).
Data set [1] is described as follows: Plasma pharmacokinetics of Bicycle conjugates in CD-1 mice. Format: in vivo. The conditions noted are these: 3 mg/kg IV, male CD-1 mice. As to the method: Male CD-1 mice were dosed with 3 mg/kg of Bicycle Conjugate formulated in 25 mM Histidine HCl, 10% sucrose pH 7 via tail vein injection. Serial bleeding (about 80 μL blood/time point) was performed via submadibular or saphenous vein at each time point. All blood samples were immediately transferred into prechilled microcentrifuge tubes containing 2 μL K2-EDTA (0.5M) as anti-coagulant and placed on wet ice.

A short description of a further data set: Plasma stability, rat. It counts as in vitro ADME. The conditions noted are these: pH 7.4; rat plasma, 2 μM, 37° C.; read-out: T1/2 (rat).
Setting [2] is: Study 2, day 9, I-8 20 mpk iv tiw, aPD1 10 mpk ip qw.

With `CCOCc1nc2c(NC(=O)OCCSSC(C)CCC(=O)NCCC(=O)N(C)CC(=O)N(C)CC(=O)N(C)CC(=O)N(C)CC(=O)N(C)CC(=O)N(C)CC(=O)N(C)CC(=O)N(C)CC(=O)N(C)CC(=O)N(C)CC(=O)N[C@@H](C)C(=O)N[C@H]3CSCc4cc5cc(c4)CSC[C@H](NC(=O)[C@@H](C)NC(=O)[C@H](Cc4cccc6ccccc46)NC(=O)[C@H](CCC(=O)O)NC(=O)[C@H](CC(N)=O)NC(=O)[C@@H](C)NC3=O)C(=O)N[C@@H](CCC(=O)O)C(=O)N[C@@H](CC(=O)O)C(=O)N[C@@H](Cc3ccccc3)C(=O)N[C@@H](Cc3ccc(O)cc3)C(=O)N[C@@H](CC(=O)O)C(=O)N[C@@H](C(C)(C)C)C(=O)N[C@H](C(N)=O)CSC5)nc3ccccc3c2n1CC(C)(C)O` (stereo partly shown) [I-8] ({X1-βAla}-[Sar][Sar][Sar][Sar][Sar][Sar][Sar][Sar][Sar][Sar]AC[dA]NE[1Nal][dA]CEDFYD[Tle]C-NH2; linker 12-18-25 via TBMB), the T/C amounted to 54.9% with B16F10 xenograft (Study 1, 20 mpk iv tiw, day 9); 25.6% in the data set on B16F10 xenograft (Study 1, 60 mpk iv tiw, day 9); 86.8% with B16F10 xenograft (setting [2]). Besides, the TGI is listed as 50.0% in the data set on B16F10 xenograft (Study 1, 20 mpk iv tiw, day 9); 82.9% in the data set on B16F10 xenograft (Study 1, 60 mpk iv tiw, day 9); 13.7% in the data set on B16F10 xenograft (setting [2]). Further, the “Tumor Volume (Mean ± SEM)” value amounted to 356 ± 60 mm^3 with B16F10 xenograft (Study 1, 20 mpk iv tiw, day 9); 166 ± 26 mm^3 in the data set on B16F10 xenograft (Study 1, 60 mpk iv tiw, day 9); 1678 ± 1129 mm^3 with B16F10 xenograft (setting [2]). For the same molecule, the half-life at 2 μM in “Plasma stability, mouse” was < 2 h; in the data set “Plasma stability, human”, 2 to 6 h; in the data set “Plasma stability, rat”, < 2 h. The systemic elimination result in data set [1] is “rapid systemic elimination”.
